Activity calls are given as the source filed them.
Key:
Thanatephorus cucumeris [1] = experiment: Antifungal activity against Thanatephorus cucumeris assessed as colony color change after 2 to 7 days; assay type: functional, organism-based
Verticillium dahliae [2] = experiment: Antifungal activity against Verticillium dahliae assessed as colony color change after 2 to 7 days; assay type: functional, organism-based
Sclerotinia sclerotiorum [3] = experiment: Antifungal activity against Sclerotinia sclerotiorum assessed as colony color change after 2 to 7 days; assay type: functional, organism-based
[4] = tested on: Pectobacterium carotovorum; experiment: Antibacterial activity against Pectobacterium carotovorum assessed as colony color change after 2 days; assay type: functional, organism-based
Pseudomonas [5] = experiment: Antibacterial activity against Pseudomonas lachrymans assessed as colony color change after 2 days; assay type: functional, organism-based
Pyricularia oryzae [6] = experiment: Antifungal activity against Magnaporthe oryzae assessed as colony color change after 2 to 7 days; assay type: functional, organism-based
Penicillium digitatum [7] = experiment: Antifungal activity against Penicillium digitatum assessed as colony color change after 2 to 7 days; assay type: functional, organism-based
[8] = tested on: Fusarium oxysporum f. sp. lycopersici; experiment: Antifungal activity against Fusarium oxysporum f. sp. lycopersici assessed as colony colour change after 2 to 7 days; assay type: functional, organism-based
Nakataea oryzae [9] = experiment: Antifungal activity against Magnaporthe salvinii assessed as colony color change after 2 to 7 days; assay type: functional, organism-based
Colletotrichum lagenaria [10] = experiment: Antifungal activity against Colletotrichum lagenaria assessed as colony color change after 2 to 7 days; assay type: functional, organism-based
Botrytis cinerea [11] = experiment: Antifungal activity against Botryotinia fuckeliana assessed as colony color change after 2 to 7 days; assay type: functional, organism-based
Pythium [12] = experiment: Antifungal activity against Pythium sp. assessed as colony color change after 2 to 7 days; assay type: functional, organism-based
Alternaria brassicicola [13] = experiment: Antifungal activity against Alternaria brassicicola assessed as colony color change after 2 to 7 days; assay type: functional, organism-based
Phytophthora nicotianae [14] = experiment: Antifungal activity against Phytophthora nicotianae var. parasitica assessed as colony color change after 2 to 7 days; assay type: functional, organism-based
Pyricularia grisea [15] = experiment: Inhibition of Magnaporthe grisea infection of rice plant at 0.01 % sprayed onto inoculated rice seedlings at every 2 hr from 2 to 12 hr after inoculation measured after 10 hr; assay type: functional, organism-based
Pyricularia grisea [16] = experiment: Inhibition of Magnaporthe grisea infection of rice plant at 0.01 % sprayed onto inoculated rice seedlings at every 2 hr from 2 to 12 hr after inoculation measured after 8 hr; assay type: functional, organism-based
Pyricularia grisea [17] = experiment: Inhibition of Magnaporthe grisea infection of rice plant at 0.01 % sprayed onto inoculated rice seedlings at every 2 hr from 2 to 12 hr after inoculation measured after 6 hr; assay type: functional, organism-based
Pyricularia oryzae [18] = experiment: Inhibition of dark brown pigmentation formation in appressorium cells of Magnaporthe oryzae at > 0.1 ppm after 24 hr; assay type: functional, organism-based
Pyricularia oryzae [19] = experiment: Inhibition of appressorium formation in Magnaporthe oryzae up to 40 ppm after 24 hr; assay type: functional, organism-based
Pyricularia oryzae [20] = experiment: Inhibition of spore germination in Magnaporthe oryzae up to 40 ppm after 24 hr; assay type: functional, organism-based
[21] = tested on: Xanthomonas campestris pv. oryzae; experiment: Antibacterial activity against Xanthomonas campestris pv. oryzae assessed as colony color change after 2 days; assay type: functional, organism-based
Cytospora ceratosperma [22] = experiment: Antifungal activity against Valsa ceratosperma assessed as colony color change after 2 to 7 days; assay type: functional, organism-based
Fusarium fujikuroi [23] = experiment: Antifungal activity against Fusarium fujikuroi assessed as colony color change after 2 to 7 days; assay type: functional, organism-based
Bipolaris oryzae [24] = experiment: Antifungal activity against Bipolaris oryzae assessed as colony color change after 2 to 7 days; assay type: functional, organism-based
[25] = tested on: Botryosphaeria kuwatsukai; experiment: Antifungal activity against Botryosphaeria berengeriana f.sp. pyricola assessed as colony color change after 2 to 7 days; assay type: functional, organism-based
[26] = tested on: Xanthomonas campestris pv. oryzae; experiment: Antibacterial activity against Xanthomonas campestris pv. oryzae assessed as growth inhibition after 2 days; assay type: functional; settings: 48 h, read-out: ED50 (the source's name)
[27] = tested on: Pectobacterium carotovorum; experiment: Antibacterial activity against Pectobacterium carotovorum assessed as growth inhibition after 2 days; assay type: functional; settings: 48 h, read-out: ED50 (the source's name)
Pseudomonas [28] = experiment: Antibacterial activity against Pseudomonas lachrymans assessed as growth inhibition after 2 days; assay type: functional; settings: 48 h, read-out: ED50 (the source's name)
Pyricularia oryzae [29] = experiment: Antifungal activity against Magnaporthe oryzae assessed as growth inhibition after 2 to 7 days; assay type: functional; settings: read-out: ED50 (the source's name)
Penicillium digitatum [30] = experiment: Antifungal activity against Penicillium digitatum assessed as growth inhibition after 2 to 7 days; assay type: functional; settings: read-out: ED50 (the source's name)
Nakataea oryzae [31] = experiment: Antifungal activity against Magnaporthe salvinii assessed as growth inhibition after 2 to 7 days; assay type: functional; settings: read-out: ED50 (the source's name)
Botrytis cinerea [32] = experiment: Antifungal activity against Botryotinia fuckeliana assessed as growth inhibition after 2 to 7 days; assay type: functional; settings: read-out: ED50 (the source's name)
Colletotrichum lagenaria [33] = experiment: Antifungal activity against Colletotrichum lagenaria assessed as growth inhibition after 2 to 7 days; assay type: functional; settings: read-out: ED50 (the source's name)
[34] = tested on: Fusarium oxysporum f. sp. lycopersici; experiment: Antifungal activity against Fusarium oxysporum f. sp. lycopersici assessed as growth inhibition after 2 to 7 days; assay type: functional; settings: read-out: ED50 (the source's name)
Alternaria brassicicola [35] = experiment: Antifungal activity against Alternaria brassicicola assessed as growth inhibition after 2 to 7 days; assay type: functional; settings: read-out: ED50 (the source's name)
Pythium [36] = experiment: Antifungal activity against Pythium sp. assessed as growth inhibition after 2 to 7 days; assay type: functional; settings: read-out: ED50 (the source's name)
Phytophthora nicotianae [37] = experiment: Antifungal activity against Phytophthora nicotianae var. parasitica assessed as growth inhibition after 2 to 7 days; assay type: functional; settings: read-out: ED50 (the source's name)
Verticillium dahliae [38] = experiment: Antifungal activity against Verticillium dahliae assessed as growth inhibition after 2 to 7 days; assay type: functional; settings: read-out: ED50 (the source's name)
Thanatephorus cucumeris [39] = experiment: Antifungal activity against Thanatephorus cucumeris assessed as growth inhibition after 2 to 7 days; assay type: functional; settings: read-out: ED50 (the source's name)
Cytospora ceratosperma [40] = experiment: Antifungal activity against Valsa ceratosperma assessed as growth inhibition after 2 to 7 days; assay type: functional; settings: read-out: ED50 (the source's name)
Sclerotinia sclerotiorum [41] = experiment: Antifungal activity against Sclerotinia sclerotiorum assessed as growth inhibition after 2 to 7 days; assay type: functional; settings: read-out: ED50 (the source's name)
Fusarium fujikuroi [42] = experiment: Antifungal activity against Fusarium fujikuroi assessed as growth inhibition after 2 to 7 days; assay type: functional; settings: read-out: ED50 (the source's name)
Bipolaris oryzae [43] = experiment: Antifungal activity against Bipolaris oryzae assessed as growth inhibition after 2 to 7 days; assay type: functional; settings: read-out: ED50 (the source's name)
[44] = tested on: Botryosphaeria kuwatsukai; experiment: Antifungal activity against Botryosphaeria berengeriana f.sp. pyricola assessed as growth inhibition after 2 to 7 days; assay type: functional; settings: read-out: ED50 (the source's name)

CC[C@]1(C(=O)N[C@H](C)c2ccc(Cl)cc2)[C@H](C)C1(Cl)Cl (relative stereo) [trans-Carpropamid]
200 µg/mL: EC50 (Pythium [36])
50 µg/mL: EC50 (Phytophthora nicotianae [37])
active: Activity (Thanatephorus cucumeris [1]) | Activity (Verticillium dahliae [2]) | Activity (Pyricularia oryzae [6]) | Activity (Nakataea oryzae [9]) | Activity (Colletotrichum lagenaria [10]) | Activity (Alternaria brassicicola [13]) | inhibition (Pyricularia grisea [17]) | Activity (Cytospora ceratosperma [22]) | Activity (Bipolaris oryzae [24]) | Activity [25]
> 200 µg/mL: EC50 [26] | EC50 [27] | EC50 (Pseudomonas [28]) | EC50 (Pyricularia oryzae [29]) | EC50 (Penicillium digitatum [30]) | EC50 (Nakataea oryzae [31]) | EC50 (Botrytis cinerea [32]) | EC50 (Colletotrichum lagenaria [33]) | EC50 [34] | EC50 (Alternaria brassicicola [35]) | EC50 (Verticillium dahliae [38]) | EC50 (Thanatephorus cucumeris [39]) | EC50 (Cytospora ceratosperma [40]) | EC50 (Sclerotinia sclerotiorum [41]) | EC50 (Fusarium fujikuroi [42]) | EC50 (Bipolaris oryzae [43]) | EC50 [44]
inactive: Activity (Sclerotinia sclerotiorum [3]) | Activity [4] | Activity (Pseudomonas [5]) | Activity (Penicillium digitatum [7]) | Activity [8] | Activity (Botrytis cinerea [11]) | Activity (Pythium [12]) | Activity (Phytophthora nicotianae [14]) | inhibition (Pyricularia grisea [15]) | inhibition (Pyricularia grisea [16]) | inhibition (Pyricularia oryzae [18]) | inhibition (Pyricularia oryzae [19]) | inhibition (Pyricularia oryzae [20]) | Activity [21] | Activity (Fusarium fujikuroi [23])

Source: ChEMBL document CHEMBL3045456, “Biological Activity of Carpropamid (KTU 3616)” (1997)
